According to patent US9796711B2, “Substituted pyrazolo[3,4-b]pyridin-6-carboxylic acids and method of use” (AbbVie S.àr.l., priority 2015, dated 2017):

What was measured:
ΔF508-CFTR [1] = biological target: T1, ΔF508-CFTR (Homo sapiens, UniProt P13569, DEL508-508); experiment: CFTR cell surface levels using HRP-tagged ΔF508-CFTR expressing CFBE cells, intrinsic corrector capacity; assay type: cell-based
T1 construct: host or cells: CFBE41o-, doxycycline-inducible
Procedure, shortened: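 Here the cells express ΔF508-CFTR with horseradish peroxidase inserted in extracellular loop 4, so only rescued channel at the surface gives luminescent signal. Compounds act on their own, 20 h at the reduced temperature of 33 °C; values are percent activity relative to DMSO and a 3 μM corrector.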

ΔF508-CFTR [2] = biological target: T1, ΔF508-CFTR; experiment: CFTR cell surface levels using HRP-tagged ΔF508-CFTR expressing CFBE cells, in the presence of a co-corrector; assay type: cell-based
Procedure, shortened: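 Cells were seeded with 0.5 μg/mL doxycycline and held 68 h at 37 °C. Test compounds plus 3 μM co-corrector (final 0.1% DMSO) were then added for 20 h at 33 °C. Washed cells received HRP substrate, and luminescence was normalized between DMSO and 3 μM co-corrector controls.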

[3] = HRP-tagged ΔF508-CFTR expressing CFBE cells, intrinsic corrector capacity (no co-corrector), 33° C., 20 hours
[4] = HRP-tagged ΔF508-CFTR expressing CFBE cells, intrinsic corrector capacity (no co-corrector), 33° C., 20 hours, read-out: EC50
[5] = HRP-tagged ΔF508-CFTR expressing CFBE cells, in the presence of 3 μM co-corrector
[6] = HRP-tagged ΔF508-CFTR expressing CFBE cells, in the presence of 3 μM co-corrector, read-out: EC50

T1 sequence (P13569 with tags, fused parts or gaps DEL508-508): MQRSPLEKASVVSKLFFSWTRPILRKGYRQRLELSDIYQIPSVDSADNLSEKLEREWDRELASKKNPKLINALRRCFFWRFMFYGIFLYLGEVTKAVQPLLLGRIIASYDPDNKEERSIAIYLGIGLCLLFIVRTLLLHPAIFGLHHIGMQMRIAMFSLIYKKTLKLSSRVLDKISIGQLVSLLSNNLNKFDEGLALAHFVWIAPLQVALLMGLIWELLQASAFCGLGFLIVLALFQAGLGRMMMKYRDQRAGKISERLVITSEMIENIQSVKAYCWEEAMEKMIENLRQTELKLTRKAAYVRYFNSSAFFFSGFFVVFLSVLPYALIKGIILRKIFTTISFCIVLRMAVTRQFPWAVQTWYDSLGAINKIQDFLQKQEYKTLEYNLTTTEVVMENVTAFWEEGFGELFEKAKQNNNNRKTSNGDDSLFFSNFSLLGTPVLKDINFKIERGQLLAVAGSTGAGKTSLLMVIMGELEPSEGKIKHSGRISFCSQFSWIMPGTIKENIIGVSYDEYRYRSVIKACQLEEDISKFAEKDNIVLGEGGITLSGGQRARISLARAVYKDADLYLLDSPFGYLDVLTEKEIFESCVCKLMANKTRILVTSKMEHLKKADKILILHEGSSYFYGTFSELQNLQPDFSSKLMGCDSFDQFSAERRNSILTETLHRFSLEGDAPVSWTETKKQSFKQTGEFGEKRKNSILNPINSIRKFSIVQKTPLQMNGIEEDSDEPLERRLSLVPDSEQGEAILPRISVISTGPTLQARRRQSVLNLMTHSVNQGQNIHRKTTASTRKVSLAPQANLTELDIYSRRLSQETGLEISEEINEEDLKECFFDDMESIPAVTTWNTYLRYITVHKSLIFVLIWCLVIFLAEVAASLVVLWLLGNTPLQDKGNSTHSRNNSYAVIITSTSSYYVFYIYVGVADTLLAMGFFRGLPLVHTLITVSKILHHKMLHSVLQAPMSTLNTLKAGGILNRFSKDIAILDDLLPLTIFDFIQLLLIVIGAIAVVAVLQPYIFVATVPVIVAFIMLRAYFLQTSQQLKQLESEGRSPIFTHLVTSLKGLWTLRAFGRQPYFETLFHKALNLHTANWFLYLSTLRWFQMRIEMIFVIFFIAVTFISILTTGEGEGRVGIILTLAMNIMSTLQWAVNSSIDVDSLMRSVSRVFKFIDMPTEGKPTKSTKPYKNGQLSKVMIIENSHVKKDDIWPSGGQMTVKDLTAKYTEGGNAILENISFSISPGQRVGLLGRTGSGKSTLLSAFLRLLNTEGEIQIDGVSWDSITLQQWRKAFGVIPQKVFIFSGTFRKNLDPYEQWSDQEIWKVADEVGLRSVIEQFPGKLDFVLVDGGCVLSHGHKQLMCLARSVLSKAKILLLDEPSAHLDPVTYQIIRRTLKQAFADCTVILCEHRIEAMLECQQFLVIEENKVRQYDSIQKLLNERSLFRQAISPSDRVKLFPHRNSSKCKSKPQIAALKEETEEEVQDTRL

SMILES | % Activation (ΔF508-CFTR [1]; [3]) [%] | EC50 (ΔF508-CFTR [1]; [4]) [nM] | % Activation (ΔF508-CFTR [2]; [5]) [%] | EC50 (ΔF508-CFTR [2]; [6]) [nM] | EC50 (ΔF508-CFTR [1]) [nM] | EC50 (ΔF508-CFTR [2]) [nM]
CN(c1cc(C(=O)O)nc2c1c(C1CCC1)nn2-c1ccccc1)[C@H]1C[C@@H](O)C1 [compound 533, 3-cyclobutyl-4-[(cis-3-hydroxycyclobutyl)(methyl)amino]-1-phenyl-1H-pyrazolo[3,4-b]pyridine-6-carboxylic acid] | 114.5 | 3210 | 315.85 | 1230 |  | 
O=C(O)c1cc(N2CC3(CCOC3)C2)c2c(C3CCC3)nn(-c3ccccc3)c2n1 [compound 534, 3-cyclobutyl-4-(6-oxa-2-azaspiro[3.4]octan-2-yl)-1-phenyl-1H-pyrazolo[3,4-b]pyridine-6-carboxylic acid] | 111 | 3330 | 281.95 | 893 |  | 
O=C(O)c1cc(N2CC[C@H](F)[C@H](O)C2)c2c(C3CCC3)nn(-c3ccccc3)c2n1 [compound 535, 3-cyclobutyl-4-[(3R,4S)-4-fluoro-3-hydroxypiperidin-1-yl]-1-phenyl-1H-pyrazolo[3,4-b]pyridine-6-carboxylic acid] | 56.68 | 2850 | 205.9 | 1410 |  | 
CC1(O)CN(c2cc(C(=O)O)nc3c2c(C2CCC2)nn3-c2ccccc2)C1 [compound 536, 3-cyclobutyl-4-(3-hydroxy-3-methylazetidin-1-yl)-1-phenyl-1H-pyrazolo[3,4-b]pyridine-6-carboxylic acid] | 49.72 | 3330 | 209.35 | 2470 |  | 
O=C(O)c1cc(N2CCC3(CCNC3=O)C2)c2c(C3CCC3)nn(-c3ccccc3)c2n1 (stereo not drawn) [compound 537, 3-cyclobutyl-4-(6-oxo-2,7-diazaspiro[4.4]nonan-2-yl)-1-phenyl-1H-pyrazolo[3,4-b]pyridine-6-carboxylic acid] | 45.36 | 3330 | 191.2 | 3330 |  | 
O=C(O)c1cc(N2CC(F)(F)C[C@H]2CO)c2c(C3CCC3)nn(-c3ccccc3)c2n1 [compound 538, 3-cyclobutyl-4-[(2S)-4,4-difluoro-2-(hydroxymethyl)pyrrolidin-1-yl]-1-phenyl-1H-pyrazolo[3,4-b]pyridine-6-carboxylic acid] | 124.6 | 2430 | 312.05 | 1540 |  | 
O=C(CN1CCN(c2cc(C(=O)O)nc3c2c(C2CCC2)nn3-c2ccccc2)CC1)NC1CCCCC1 [compound 540, 3-cyclobutyl-4-{4-[2-(cyclohexylamino)-2-oxoethyl]piperazin-1-yl}-1-phenyl-1H-pyrazolo[3,4-b]pyridine-6-carboxylic acid] | 142.2 | 452 | 314.05 | 324 |  | 
O=C(O)c1cc(N2CC[C@@H](F)C2)c2c(C3CCC3)nn(-c3ccccc3)c2n1 [compound 541, 3-cyclobutyl-4-[(3R)-3-fluoropyrrolidin-1-yl]-1-phenyl-1H-pyrazolo[3,4-b]pyridine-6-carboxylic acid] | 120.7 | 988 | 287.85 | 799 |  | 
COC1CN(c2cc(C(=O)O)nc3c2c(C2CCC2)nn3-c2ccccc2)C1 [compound 542, 3-cyclobutyl-4-(3-methoxyazetidin-1-yl)-1-phenyl-1H-pyrazolo[3,4-b]pyridine-6-carboxylic acid] | 104.6 | 1840 | 290.6 | 1780 |  | 
O=C(O)c1cc(N2CCC3(CC2)CC(O)C3)c2c(C3CCC3)nn(-c3ccccc3)c2n1 [compound 543, 3-cyclobutyl-4-(2-hydroxy-7-azaspiro[3.5]nonan-7-yl)-1-phenyl-1H-pyrazolo[3,4-b]pyridine-6-carboxylic acid] | 129.15 | 304 | 304.9 | 242 |  | 
O=C(O)c1cc(N2CCC[C@@H](CO)C2)c2c(C3CCC3)nn(-c3ccccc3)c2n1 [compound 544, 3-cyclobutyl-4-[(3R)-3-(hydroxymethyl)piperidin-1-yl]-1-phenyl-1H-pyrazolo[3,4-b]pyridine-6-carboxylic acid] | 129.55 |  | 273 |  | 803 | 457
O=C(O)c1cc(N2CCCOCC2)c2c(C3CCC3)nn(-c3ccccc3)c2n1 [compound 545, 3-cyclobutyl-4-(1,4-oxazepan-4-yl)-1-phenyl-1H-pyrazolo[3,4-b]pyridine-6-carboxylic acid] | 109.4 | 1150 | 247.05 | 563 |  | 
O=C(O)c1cc(N2CCC(O)(CCO)CC2)c2c(C3CCC3)nn(-c3ccccc3)c2n1 [compound 546, 3-cyclobutyl-4-[4-hydroxy-4-(2-hydroxyethyl)piperidin-1-yl]-1-phenyl-1H-pyrazolo[3,4-b]pyridine-6-carboxylic acid] | 87.52 | 3330 | 246.6 | 3330 |  | 
COCC1CCN(c2cc(C(=O)O)nc3c2c(C(C)C)nn3CC2CCC2)CC1 [compound 547, 1-(cyclobutylmethyl)-4-[4-(methoxymethyl)piperidin-1-yl]-3-(propan-2-yl)-1H-pyrazolo[3,4-b]pyridine-6-carboxylic acid] | 120.7 | 3330 | 318.7 | 1880 |  | 
COCC1CCN(c2cc(C(=O)O)nc3c2c(C(C)C)nn3CC(C)C)CC1 [compound 548, 4-[4-(methoxymethyl)piperidin-1-yl]-1-(2-methylpropyl)-3-(propan-2-yl)-1H-pyrazolo[3,4-b]pyridine-6-carboxylic acid] | 88.93 | 2540 | 306 | 3330 |  | 
N#CC1CCN(c2ccc(-c3cc(C(=O)O)nc4c3c(OC3CCNC3)nn4-c3ccccc3)cn2)CC1 (stereo not drawn) [compound 550, 4-[6-(4-cyanopiperidin-1-yl)pyridin-3-yl]-1-phenyl-3-[(pyrrolidin-3-yl)oxy]-1H-pyrazolo[3,4-b]pyridine-6-carboxylic acid] | 4.775 | > 10000 | 122.4 | > 10000 |  | 
C[C@H]1C[C@H](c2nn(-c3ccccc3)c3nc(C(=O)O)cc(-c4ccc(N5CCC(C#N)CC5)nc4)c32)C1 [compound 551, 4-[6-(4-cyanopiperidin-1-yl)pyridin-3-yl]-3-(trans-3-methylcyclobutyl)-1-phenyl-1H-pyrazolo[3,4-b]pyridine-6-carboxylic acid] | 223.1 | 370 | 424.35 | 87.2 |  | 
CC(C)(C)OC(=O)N1CCC(Oc2nn(-c3ccccc3)c3nc(C(=O)O)cc(-c4ccc(N5CCC(C#N)CC5)nc4)c23)C1 (stereo not drawn) [compound 552, 3-{[1-(tert-butoxycarbonyl)pyrrolidin-3-yl]oxy}-4-[6-(4-cyanopiperidin-1-yl)pyridin-3-yl]-1-phenyl-1H-pyrazolo[3,4-b]pyridine-6-carboxylic acid] | 156.1 | 370 | 396.65 | 396 |  | 
